SMILES strings stand for the structures. “And” between values parts separate entries of the source, which are not always exact repeats. Identical values can stand only once.

For one data set, the system named is freshwater fish. Also on record: method as in earlier work. As to conditions: USEPA; cited from earlier work.
The subject of a further data set is E. coli. As to the kind of experiment: Fluorescence microscopic analysis of propidium iodide-stained E. coli (membrane integrity). Format: cell-based, Escherichia coli. To be noted: with increasing 2,6-DCQ dose. As to the method:
The E. coli cells in the control and disinfected samples were pelleted by centrifugation at 8000×g (5 min, 4 °C) and resuspended in 200 μL PBS (0.1 M, pH 7.2). Propidium iodide[54] was added to the cell suspension at a concentration of 75 μM. After propidium iodide staining in darkness for 30 min, the samples were washed twice with PBS and mounted on glass slides. The samples were then examined using a fluorescence microscope (Eclipse Ti, Nikon, Japan). The fluorescence intensity was semi-quantified with ImageJ software (National Institutes of Health, Bethesda, MD).

A short description of data set [1]: Real-time stability testing of 2,6-DCQ (solid form, 2-propanol solution). As to conditions: for Time remaining stable: room temperature. Format: physicochemical. As to the method:
According to the U.S. Food and Drug Administration guidance, 2,6-DCQ in solid form or solution form (using 2-propanol as the solvent, a common ingredient in antiseptic liquids and hand sanitizers) was kept at room temperature (22 ± 1 °C) and 65 ± 5% of relative humidity for stability testing. The concentrations of 2,6-DCQ at different storage times were determined by an Agilent HPLC equipped with a UV detector at 280 nm. A disinfectant product is considered stable for a certain storage time if its concentration remains ≥90% of the initial concentration.

A short description of data set [2]: Acute oral toxicity, Hodge and Sterner toxicity scale. As to conditions: in vivo, rat, inferred from LD10 of ref 49.
Excerpt: The lethal dose 10% (LD 10; the dose at which 10% of the individuals die)
Data set [3] can be described thus: Degradation of 2,6-DCQ in phosphate-buffered ultrapure water (pH 8.2) in darkness. Format: physicochemical.
Description: For the stability of 2,6-DCQ in aquatic environments, we used seawater because seawater
investigate the effect of chloride ions on the stability of 2,6-DCQ, we have conducted the
degradation experiments of 2,6-DCQ in seawater (pH 8.2) and ultrapure water (added with 4 mM
phosphate buffer at pH 8.2) in darkness.
Lines 185–188 in the revision-marked manuscript, “We also investigated the effect of the high
chloride level in seawater on the degradation of 2,6-DCQ in darkness.

For `Cc1cc(O)cc(C)c1Cl` [PCMX, para-chloro-meta-xylenol, reference compound], the “Toxicity rating to freshwater fish” value in the data set with freshwater fish is “highly toxic”.

The LD50 is the dose expected to kill half of the subjects tested. Low values mean a more toxic substance, high ones a less toxic substance. Turning to `O=C1C=C(Cl)C(=O)C(Cl)=C1` [2,6-DCQ, 2,6-dichlorobenzoquinone], the “Propidium iodide fluorescence intensity relative to control sample” value with E. coli was 3.5–59.2 times. For the same compound, the Time remaining stable result in data set [1] (in 2-propanol) is listed as “over 7 months”; in data set [1] (solid form), “over 36 months”. In addition, the C/C0 was 1 in data set [1] (solid form, storage time 0 month); 1.072 and 1.01 in data set [1] (solid form, storage time 16 month); 1.029 and 1.0188 in data set [1] (solid form, storage time 36 month); 1 in data set [1] (solution form (2-propanol), storage time 0 month); 0.9898 in data set [1] (solution form (2-propanol), storage time 2.5 month); 0.9151 in data set [1] (solution form (2-propanol), storage time 7 month). Further, the C/C0 in data set [1] (solution form (2-propanol), storage time 10 month) worked out at 0.8855; in data set [1] (solution form (2-propanol), storage time 12.5 month), 0.8301. The compound further registered an LD50 in data set [2] of at least 1000 mg/kg. In addition, in data set [3] (pH 8.2 in phosphate-buffered water, darkness, 0 h), the “Ln (C/C0)” value was 0. Further, in data set [3] (seawater vs phosphate-buffered water, pH 8.2, darkness), the “Effect of chloride ions on degradation” value is given as “no discernible effect”.

The values above are taken from article PMC11161644, “An effective and rapidly degradable disinfectant from disinfection byproducts” (Nature Communications, 2024).
